From patent publication US20040067853A1, “Sulfonamide derivative-containing agricultural and horticultural composition” (priority 2001, published 2004)

Tests used:
Pyrenophora teres = experiment: Protective effect of Pyrenophora teres on barley seedlings (spray, protection value from lesion area ratio; Colby's equation for mixtures); format: in vivo
Protocol: (§1) Hereunder, the evaluation of each fungicide was carried out by converting the ratio into a protection value after measuring the lesion area ratio (in percentage). The protectin value was calculated by means of the equation as follows.
(§2) protection value=(1−(lesion area in the division treated with fungicide)/lesion area in the division not treated with fungicide))×100
(§3) An estimated protection value of a mixture of active ingredients was calculated according to the Colby's equation [R. S. Colby, Weeds 15, 20-22 (1967)] and compared with the experimental protection value.
(§4) wherein E is the estimated protection value (additive effect) which will be obtained when the active ingredients A and B are used in a mixture in concentrations a and b, respectively, x is the protection value obtained when the active ingredient A is used in a concentration a, and y is the protection value obtained when the active ingredient B is used in a concentration b. […] A protection value 0 means that the lesion area ratio of the plants in the test group is as large as that of the plants in the untreated control group. A protective value 100 means that the plants in the test group are free from the disease.
The supplied compound (that is, the compound to which number (No.) was attached in Table 1), and A (picoxystrobin), B (trifloxystrobin), C (pyraclostrobin), D (cresoxime methyl), E (epoxiconazole), F (flusilazole) and G (tebuconasole) shown in Table 31 were, alone or in a mixture form, dissolved into dimethylformamide (final concentration: 1% by weight). Thereto were added xylene (final concentration: 0.02% by weight) and Tween 20 (trade name) (final concentration: 0.02% by weight), and then the solution was diluted with water to have a desired effective component concentration (ppm). To this solution was added a spreading agent SINDAIN (trade name, made by Takeda Chemical Industries, Ltd.) containing 20% by weight of polyoxyethylene nonylphenyl ether and 12% by weight of calcium ligninsulfonate so as to have a final concentration of 0.05% by weight. Thus, a spray solution was prepared. The solution was sprayed, at a rate of 40 ml/pot, onto barley seedlings (cultural variety: Shiaga Hasseki No. 5) grown for 1 week in a greenhouse. After air drying, a suspension containing spores (5×10^5/ml) of Pyrenophora teres was sprayed and inoculated thereto at a rate of 2 ml/pot. After the inoculation, the seedlings were kept inside a high-humidity box having a temperature of 24° C. for 18 hours and then put into a room. After 9 days, the lesion area ratio on the treated leaves was investigated.

Alternaria mali = experiment: Prevention effect of Alternaria mali on apple seedlings (spray, protection value from lesion area ratio; Colby's equation for mixtures); format: in vivo
Protocol: as §1, §2, §3, §4
The supplied compound (that is, the compound to which number (No.) was attached in Table 1-29), and A (picoxystrobin), B (trifloxystrobin), and C (pyraclostrobin) shown in Table 30 were, alone or in a mixture form, dissolved into dimethylformamide (final concentration: 1% by weight). Thereto were added xylene (final concentration: 0.02% by weight) and Tween 20 (trade name) (final concentration: 0.02% by weight), and then the solution was diluted with water to have a desired effective component concentration (ppm). To this solution was added a spreading agent SINDAIN (trade name, made by Takeda Chemical Industries, Ltd.) containing 20% by weight of polyoxyethylene nonylphenyl ether and 12% by weight of calcium ligninsulfonate so as to have a final concentration of 0.05% by weight. Thus, a spray solution was prepared. The solution was sprayed, at a rate of 10 ml/pot, onto the apple seedlings (cultural variety: Star King Delicous) grown for 3 or 4 weeks in a greenhouse. After one day from the treatment, a suspension containing a 1% yeast extract, a 1% sucrose, and spores (5×10^5/ml) of Alternaria mali was sprayed and inoculated thereto at a rate of 1 ml/pot. After the inoculation, the trees were kept inside a high-humidity box having a temperature of 28° C. for 4 days. Thereafter, the lesion area ratio on the treated leaves was examined.

Row | Structure (SMILES) | Lesion area ratio (%) (Pyrenophora teres; 5.0 ppm active ingredient) | Protection value (Pyrenophora teres; 5.0 ppm active ingredient) | Lesion area ratio (%) (Pyrenophora teres; 0.2 ppm active ingredient) | Protection value (Pyrenophora teres; 0.2 ppm active ingredient) | Lesion area ratio (%) (Alternaria mali; 6.3 ppm active ingredient) | Protection value (Alternaria mali; 6.3 ppm active ingredient) | Lesion area ratio (%) (Alternaria mali; 25.0 ppm active ingredient) | Protection value (Alternaria mali; 25.0 ppm active ingredient) | Lesion area ratio (%) (Alternaria mali; 100.0 ppm active ingredient) | Protection value (Alternaria mali; 100.0 ppm active ingredient) | other results
1 | CO/N=C(/C(=O)OC)c1ccccc1COc1ccccc1C [cresoxime methyl] | 27.5% | 45 |  |  |  |  |  |  |  |  | 
2 | C[Si](Cn1cncn1)(c1ccc(F)cc1)c1ccc(F)cc1 [flusilazole] | 25.0% | 50 |  |  |  |  |  |  |  |  | 
3 | CO/N=C(/C(=O)OC)c1ccccc1CO/N=C(\C)c1cccc(C(F)(F)F)c1 [trifloxystrobin, methyl-(E)-methoxyimino-{(E)-α-[1-(α,α,α-trifluoro-m-tolyl)ethylideneaminooxy]-o-tolyl}acetate] |  |  | 27.5% | 45 | 61.7% | 0 | 4.7% | 90 | 2.2% | 95 | 
4 | CO/C=C(/C(=O)OC)c1ccccc1COc1cccc(C(F)(F)F)n1 [picoxystrobin, methyl (E)-3-mthoxy-2-{2-[6-(trifluoromethyl)-2-pyridyloxymethyl]phenyl}acrylate] |  |  | 17.5% | 65 | 11.5% | 76 | 9.5% | 80 | 6.2% | 87 | 
5 | COC(=O)N(OC)c1ccccc1COc1ccn(-c2ccc(Cl)cc2)n1 [pyraclostrobin, methyl N-{2-[1-(4-chlorophenyl)-1-H-pyrazol-3-yloxymethyl]phenyl}(N-methoxy)carbamate] |  |  | 12.5% | 75 | 11.0% | 77 | 11.0% | 77 | 3.7% | 92 | 
6 | CCN(c1ccc(Cl)cc1[N+](=O)[O-])S(=O)(=O)c1ccc(C)cc1 [Compound No. 289, 4′-chloro-N-ethyl-2′-nitro-p-toluenesulfonanilide] |  |  |  |  | 3.5% | 93 |  |  |  |  | Lesion area ratio (%) (Pyrenophora teres; 0.5 ppm active ingredient): 17.5%; Protection value (Pyrenophora teres; 0.5 ppm active ingredient): 65; melting point: 132.5 to 134 °C; Lesion area ratio (%) (Alternaria mali; 0.4 ppm active ingredient): 19.8%; Protection value (Alternaria mali; 0.4 ppm active ingredient): 58; Lesion area ratio (%) (Alternaria mali; 1.6 ppm active ingredient): 19.5%; Protection value (Alternaria mali; 1.6 ppm active ingredient): 59
7 | Fc1ccc([C@]2(Cn3cncn3)O[C@H]2c2ccccc2Cl)cc1 (racemic) [epoxiconazole, (2RS,3SR)-1-[3-(2-chlorophenyl)-2,3-epoxy-2-(4-fluorophenyl)propyl]-1H-1,2,4-triazole] | 15.0% | 70 |  |  |  |  |  |  |  |  | 
8 | CC(C)(C)C(O)(CCc1ccc(Cl)cc1)Cn1cncn1 (centres unmarked) [tebuconasole] | 22.5% | 55 |  |  |  |  |  |  |  |  | 
